In PMC12116762, “Topobexin targets the Topoisomerase II ATPase domain for beta isoform-selective inhibition and anthracycline cardioprotection” (Nature Communications, 2025):
“And” between values parts separate entries of the source, which are not always exact repeats. Equal values may be shown once.

Tests used:
γH2AX = γH2AX levels in NVCM (Western blotting); format: cell-based, rat; design: γH2AX level, mean: scale not given here; details: for γH2AX level: independent replicates
Procedure: TOP2B and γH2AX levels in NVCM were determined as follows. After incubation, 4 × 10^5 rat neonatal cardiomyocytes were lysed with 75 µL of 2% SDS in 0.1 M Tris (pH 7.4) and boiled at 95 °C for 5 min. The protein content of each sample was determined by the BCA method and 10 μg of total protein were loaded onto a polyacrylamide gel (7.5% for TOP2B, 12% for γH2AX, Bio-Rad TGX stain-free gels). After approximately 75 min of electrophoresis (150 V, Bio-Rad Mini-PROTEAN Tetra Cell), the gels were transblotted onto nitrocellulose membranes using a semi-dry method in Transblot Turbo (Bio-Rad, USA). The next day, the membranes were blocked for 1 h in 5% skimmed milk powder in 0.05% TBS-T at room temperature (RT). For TOP2 analysis, membranes were incubated with rabbit anti-TOP2A/B (1:2,000, ab109524, Abcam, UK) in 1% BSA in PBS for 1 h at RT, washed 6 times for 5 min in 0.05% TBS-T and then incubated with HRP-labeled F(ab’)2 goat anti-rabbit IgG (1:10,000, ab6112, Abcam, UK) in 0.05% TBS-T for 1 h RT and washed again (6 × 5 min in 0.05% TBS-T). For γH2AX analysis, membranes were incubated with mouse anti-γH2AX (1:5,000; ab26350, Abcam, UK) in 5% BSA in PBS for 1 h at RT, washed with 0.05% PBS-T for 6 × 5 min, incubated with HRP-conjugated anti-mouse IgG (1:40,000; A9044 Sigma Aldrich, USA) in 5% BSA in PBS for 1 h RT and finally washed with 0.05% PBS-T for 6 times 5 min. Target proteins were visualized using a chemiluminescent detection substrate (Clarity Western ECL Substrate, Bio-Rad, USA) and a Gel Doc EZ with Image Lab software (Bio-Rad, USA). Full, uncropped images of all blots present in the manuscript figures are included in the source data file.
Densitometric quantification was performed using Image Lab software (Bio-Rad). Stain-free technology was used to visualize the total protein on the gel and normalize the total protein amount in each line. Each presented data point was obtained from distinct sample.

caspase 8 = experiment: Caspase 8 activity in NVCM (Caspase-Glo); format: cell-based, rat; details: for Csp8 activity: independent replicates
Procedure: Caspase activity was assessed on NVCM cells using luciferase-based kits for caspase 3/7, 8 and 9 (Caspase-Glo® 3/7, 8 and 9 assay systems; Promega) according to the manufacturer’s instructions on 384-well plates (Greiner Bio-One). Luminescence signal was measured using Tecan M200 multifunctional plate-reader. All measured groups were corrected for total protein concentration (BCA assay) and were expressed as fold change of the signal over corresponding untreated control group. Each presented data point was obtained from distinct sample. Statistical significance was determined using ratio paired t-test, two-tailed.

[1] = system: neonatal rat ventricular cardiomyocytes (NVCM); experiment: Protection against DAU-induced cytotoxicity (LDH release) in NVCM; format: cell-based; design: key to Suppl.Fig.3 DAU-induced cytotoxicity (LDH release) in NVCM, mean of independent replicates / LDH release (DAU-induced cytotoxicity), mean of independent replicates: % of total LDH activity; details: for LDH release: independent replicates
In short: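 Primary neonatal Wistar rat cardiomyocytes in serum- and pyruvate-free DMEM/F12 were pretreated with compound 3 h, then co-incubated 3 h with DAU (1.2 µM), or without DAU for inherent toxicity, then given a 48 h drug-free follow-up. Medium LDH activity (NAD+ reduction at 340 nm) expressed as % of total LDH.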

Compound: CCCc1cc(=O)oc2c(C(=O)N3CCCc4ccccc43)c(OCCN3CCN(C)CC3)ccc12 [topobexin (9)]
- γH2AX level, mean (γH2AX; 0.1 µM + DAU 1.2 µM): 39.0271
- γH2AX level (γH2AX; 0.1 µM + DAU 1.2 µM): 36.8376 and 42.68 and 24.34 and 52.2506
- γH2AX level, mean (γH2AX; 0.1 µM alone): 2.32
- γH2AX level (γH2AX; 0.1 µM alone, DAU mean 100): 5.77 and 0.9222 and 2.18 and 0.4088
- γH2AX level, mean (γH2AX; 1 µM + DAU 1.2 µM): 7.0222
- γH2AX level (γH2AX; 1 µM + DAU 1.2 µM): 17.1283 and 3.616 and 2.74 and 4.605
- γH2AX level, mean (γH2AX; 1 µM alone): 3.099
- γH2AX level (γH2AX; 1 µM alone): 8.242 and 0.9663 and 2.352 and 0.8374
- γH2AX level, mean (γH2AX; 10 µM + DAU 1.2 µM): 3.08
- γH2AX level (γH2AX; 10 µM + DAU 1.2 µM): 6.036 and 4.664 and 0.5024 and 1.119
- γH2AX level, mean (γH2AX; 10 µM alone): 2.838
- γH2AX level (γH2AX; 10 µM alone): 3.615 and 3.033 and 2.846 and 1.856
- lowest concentration tested preventing DAU-induced γH2AX (γH2AX; NVCM): 0.1 µM
- Csp8 activity, mean (caspase 8; Cmpd 9 10 μM + DAU 1.2 μM): 1.776 fold change
- Csp8 activity (caspase 8; Cmpd 9 10 μM + DAU 1.2 μM): 1.323 fold change and 1.259 fold change and 2.008 fold change and 1.4395 fold change and 2.674 fold change and 1.95 fold change
- Csp8 activity, mean (caspase 8; Cmpd 9 10 μM alone): 1.035 fold change
- Csp8 activity (caspase 8; Cmpd 9 10 μM alone): 0.9315 fold change and 1.0306 fold change and 0.962 fold change and 0.8268 fold change and 1.054 fold change and 1.403 fold change
- concentration providing significant cardioprotection ([1]; NVCM, DAU 1.2 µM): ≥ 1 µM
- minimal effective concentration ([1]; Rattus norvegicus, Cardiomyocyte, NVCM, protection against DAU 1.2 µM, n=4, read-out: LEC = lowest effective concentration): 1 µM
- LDH release, mean ([1]; compound 0.01 µM + DAU 1.2 µM): 39.6717 % of total LDH
- LDH release (protection against DAU), mean of independent replicates ([1]; compound 0.01 µM + DAU 1.2 µM, NVCM, Suppl.Fig.6b): 39.6717
- LDH release ([1]; compound 0.01 µM + DAU 1.2 µM): 48.3922 % of total LDH and 39.9759 % of total LDH and 35.5793 % of total LDH and 34.7393 % of total LDH
- LDH release, mean ([1]; compound 0.1 µM + DAU 1.2 µM): 37.5382 % of total LDH
- LDH release (protection against DAU), mean of independent replicates ([1]; compound 0.1 µM + DAU 1.2 µM, NVCM, Suppl.Fig.6b): 37.5382
- LDH release (protection against DAU), mean of independent replicates ([1]; compound 0.1 µM + DAU 1.2 µM, NVCM, Suppl.Fig.8a): 42.825
- LDH release ([1]; compound 0.1 µM + DAU 1.2 µM): 40.1489 % of total LDH and 41.381 % of total LDH and 32.4516 % of total LDH and 36.1711 % of total LDH
- LDH release, mean ([1]; compound 1 µM + DAU 1.2 µM): 29.7613 % of total LDH
- LDH release (protection against DAU), mean of independent replicates ([1]; compound 1 µM + DAU 1.2 µM, NVCM, Suppl.Fig.6b): 29.7613
- LDH release (protection against DAU), mean of independent replicates ([1]; compound 1 µM + DAU 1.2 µM, NVCM, Suppl.Fig.8a): 37.7816
- LDH release ([1]; compound 1 µM + DAU 1.2 µM): 32.8929 % of total LDH and 30.456 % of total LDH and 27.486 % of total LDH and 28.2102 % of total LDH
- LDH release, mean ([1]; compound 10 µM + DAU 1.2 µM): 24.2662 % of total LDH
- LDH release (protection against DAU), mean of independent replicates ([1]; compound 10 µM + DAU 1.2 µM, NVCM, Suppl.Fig.6b): 24.2662
- LDH release (protection against DAU), mean of independent replicates ([1]; compound 10 µM + DAU 1.2 µM, NVCM, Suppl.Fig.8a): 30.0056
- LDH release ([1]; compound 10 µM + DAU 1.2 µM): 28.5774 % of total LDH and 24.8184 % of total LDH and 21.0698 % of total LDH and 22.5992 % of total LDH
- LDH release, mean ([1]; compound 30 µM + DAU 1.2 µM): 25.2224 % of total LDH
- LDH release (protection against DAU), mean of independent replicates ([1]; compound 30 µM + DAU 1.2 µM, NVCM, Suppl.Fig.6b): 25.2224
- LDH release ([1]; compound 30 µM + DAU 1.2 µM): 28.8537 % of total LDH and 23.9613 % of total LDH and 20.3957 % of total LDH and 27.679 % of total LDH
- LDH release, mean ([1]; compound 100 µM + DAU 1.2 µM): 26.7487 % of total LDH
- LDH release (protection against DAU), mean of independent replicates ([1]; compound 100 µM + DAU 1.2 µM, NVCM, Suppl.Fig.6b): 26.7487
- LDH release (protection against DAU), mean of independent replicates ([1]; compound 100 µM + DAU 1.2 µM, NVCM, Suppl.Fig.8a): 32.5863
- LDH release ([1]; compound 100 µM + DAU 1.2 µM): 31.0584 % of total LDH and 27.7033 % of total LDH and 21.5053 % of total LDH and 26.728 % of total LDH
- lowest concentration with statistically significant cytoprotective effects ([1]; side-by-side comparison with dexrazoxane (Supp Fig 8a)): 0.1 µM

Compound: COc1cccc2c1C(=O)c1c(O)c3c(c(O)c1C2=O)C[C@@](O)(C(C)=O)C[C@@H]3O[C@H]1C[C@H](N)[C@H](O)[C@H](C)O1 [DAU, daunorubicin, reference compound]
- γH2AX level, mean (γH2AX; DAU 1.2 μM alone): 100
- γH2AX level (γH2AX; DAU 1.2 μM alone): 113.699 and 89.6209 and 76.0928 and 120.587
- Csp8 activity, mean (caspase 8; DAU 1.2 μM alone): 2.2056 fold change
- Csp8 activity (caspase 8; DAU 1.2 μM alone): 1.777 fold change and 1.7129 fold change and 3.182 fold change and 1.952 fold change and 2.3428 fold change and 2.2669 fold change
- LDH release, mean ([1]; DAU 1.2 µM alone, 48 h): 50.9581 % of total LDH and 40.9598 % of total LDH and 38.3367 % of total LDH
- LDH release ([1]; DAU 1.2 µM alone, 48 h): 42.9177 % of total LDH and 49.9715 % of total LDH and 51.9004 % of total LDH and 59.0427 % of total LDH and 48.4333 % of total LDH and 43.9079 % of total LDH and 36.1066 % of total LDH and 35.3914 % of total LDH and 37.5065 % of total LDH and 36.8503 % of total LDH and 39.0464 % of total LDH and 39.9436 % of total LDH
- LDH release (DAU-induced cytotoxicity), mean of independent replicates ([1]; DAU 1.2 µM alone, NVCM, Suppl.Fig.6b): 49.0741 and 44.6225 and 40.9598 and 43.4866
- LDH release (DAU-induced cytotoxicity), mean of independent replicates ([1]; DAU 1.2 µM alone, NVCM, Suppl.Fig.8a): 50.2853
- Suppl.Fig.3 DAU-induced cytotoxicity (LDH release) in NVCM, mean of independent replicates ([1]; DAU 1.2 µM alone, one value per experiment set (compound block)): 52.5555 and 50.9581 and 43.2031 and 52.6717 and 39.8455 and 40.6658 and 38.8384 and 49.4177 and 40.4688 and 38.0883 and 38.3367 and 37.1578 and 50.485 and 47.9698 and 52.8733 and 52.0892 and 42.039 and 50.4287
